Biological target: Human immunodeficiency virus type 1 integrase (Human immunodeficiency virus 1, UniProt Q7ZJM1)
Assay: Inhibition of HIV1 integrase strand transfer activity

Human immunodeficiency virus type 1 integrase, sequence (Q7ZJM1 whole entry): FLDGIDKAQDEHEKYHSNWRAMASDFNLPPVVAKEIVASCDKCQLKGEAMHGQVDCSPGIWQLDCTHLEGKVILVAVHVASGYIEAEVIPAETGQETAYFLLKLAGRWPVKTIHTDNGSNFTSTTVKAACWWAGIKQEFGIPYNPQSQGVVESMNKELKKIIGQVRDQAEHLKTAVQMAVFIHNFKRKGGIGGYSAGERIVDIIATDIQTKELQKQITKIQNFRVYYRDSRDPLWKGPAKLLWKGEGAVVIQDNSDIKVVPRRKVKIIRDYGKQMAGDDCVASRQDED

IC50 [nM] | Structure (SMILES)
40 | CN1CCN(c2cc(C(=O)NCc3ccc(F)cc3)c(O)c3ncccc23)CC1
150 | COc1ccc(Cc2cccc(C(=O)/C=C(\O)C(=O)O)c2)cc1
2500 | O=C(O)/C(O)=C/C(=O)c1cccc(Br)c1
5670 | O=C(O)/C(O)=C/C(=O)c1ccccc1Cc1ccccc1
180 | O=C(O)/C(O)=C/C(=O)C1C=CSC1Cc1ccccc1 (stereo not drawn)
130 | O=C(O)/C(O)=C/C(=O)c1csc(Cc2ccccc2)c1
< 100 | O=C(O)/C(O)=C/C(=O)c1cccc(Cc2ccc(F)cc2)c1
< 100 | O=C(O)/C(O)=C/C(=O)c1cccc(Cc2ccccc2Cl)c1
500 | O=C(O)/C(O)=C/C(=O)c1ccc(Cc2ccccc2)s1
90 | COc1cnc2c(O)c3c(c(OC)c2c1)CN(Cc1ccc(F)cc1)C3=O
30 | CC(=O)N(C)CCNc1cc(C(=O)NCc2ccc(F)cc2)c(O)c2ncccc12
250 | O=C(O)/C(O)=C/C(=O)c1cccc(Cc2cccc(F)c2)c1
30 | O=C(NCc1ccc(F)cc1)c1ccc2cccnc2c1O
11400 | O=C(O)/C(O)=C/C(=O)c1ccc(Oc2ccccc2)cc1
100 | O=C(O)/C(O)=C/C(=O)c1cc(OCc2ccccc2)cc(OCc2ccccc2)c1
40 | CN(C)C(=O)C(=O)N(C)c1cc(C(=O)NCc2ccc(F)cc2)c(O)c2ncccc12
500 | O=C(O)/C(O)=C/C(=O)c1cccn1CCCc1ccccc1
20 | CC(=O)N(C)c1cc(C(=O)NCc2ccc(F)cc2)c(O)c2ncccc12
460 | [N-]=[N+]=NCc1cc(CN=[N+]=[N-])cc(C(=O)/C=C(\O)C(=O)O)c1
< 100 | O=C(O)/C(O)=C/C(=O)c1cccc(Cc2cccc(Cl)c2)c1
140 | COc1cccc(Cc2cccc(C(=O)/C=C(\O)C(=O)O)c2)c1
750 | O=C(O)/C(O)=C/C(=O)c1cccc(Cc2ccc(Cl)cc2)c1
< 100 | O=C(O)/C(O)=C/C(=O)c1cccc(Cc2ccccc2F)c1
550 | O=C(O)/C(O)=C/C(=O)c1ccn(Cc2ccccc2)c1
2400 | O=C(/C=C(\O)C(=O)O)C(=O)c1cccc(C(=O)c2ccccc2)c1
330 | [N-]=[N+]=NCc1cccc(C(=O)/C=C(\O)C(=O)O)c1
250 | CN(C)S(=O)(=O)Oc1c2c(c(O)c3ncccc13)C(=O)N(Cc1ccc(F)cc1)C2
220 | O=C(O)/C(O)=C/C(=O)c1cccn1Cc1ccccc1
7500 | O=C(O)/C(O)=C/C(=O)c1cccn1Cc1ccc(-c2ccccc2)cc1
20 | CC(=O)N1CCN(c2cc(C(=O)NCc3ccc(F)cc3)c(O)c3ncccc23)CC1

Structure (SMILES) | IC50 [nM]
O=C(O)/C(O)=C/C(=O)c1cccc(OCc2ccccc2)c1 | 350
O=C1c2c(c(C(=O)N3CCOCC3)c3cccnc3c2O)CN1Cc1ccc(F)cc1 | 40
O=C1c2c(c(-c3c(F)cccc3F)c3cccnc3c2O)CN1Cc1ccc(F)cc1 | 330
